Reference: patent publication US9102648B1, “Bioavailable diacylhydrazine ligands for modulating the expression of exogenous genes via an ecdysone receptor complex” (Intrexon Corporation, priority 2003, dated 2015)
≈ marks a conversion by molar mass, not a printed value. Like-named read-outs stand apart in the source and are kept apart here.

How the values were obtained:
Caco-2 monolayers = test: Bi-directional permeability, CACO-2; format: in vitro ADME; conditions: for Absorption Potential: classification from Papp(A-to-B); for Papp B-A / Papp A-B Ratio: Caco-2 efflux ratio
Experimental: (§1) Caco-2 monolayers were grown to confluence on collagen-coated, microporous, polycarbonate membranes in 12-well Costar Transwell plates. Details of the plates and their certification are shown below. The permeability assay buffer was Hank's Balanced Salt Solution containing 10 mM HEPES and 15 mM glucose at a pH of 7.0±0.2. The dosing solution concentration was 10 μM in assay buffer. At each time point, 1 and 2 hours, a 200-μL aliquot was taken from the receiver chamber and replaced with fresh assay buffer. Cells were dosed on the apical side (A-to-B) or basolateral side (B-to-A) and incubated at 37° C. with 5% CO2 and 90% relative humidity. Each determination was performed in duplicate. The important experimental parameters are outlined below. Permeability through a cell-free (blank) membrane was studied to determine non-specific binding and free diffusion of the compound through the device. Lucifer yellow flux was also measured for each monolayer after being subjected to the test compounds to ensure no damage was inflicted to the cell monolayers during the flux period.
(§2) All samples were assayed by LC/MS using electrospray ionization. Typical LC/MS conditions are as follows:
(§3) dCr/dt is the cumulative concentration in the receiver compartment versus time in M s^−1.
(§4) Vr is the volume of the receiver compartment in cm^3.
(§5) Vd is the volume of the donor compartment in cm^3.
(§6) A is the area of the cell monolayer (1.13 cm^2 for 12-well Transwell).
(§7) C0 is the concentration of the dosing solution in M.
(§8) Cr^final is the cumulative receiver concentration in M at the end of the incubation period.
(§9) Cd^final is the concentration of the donor in M at the end of the incubation period.

[1] = Partition coefficient Log (D), 1-octanol / pH 7.4 buffer; format: physicochemical; conditions: water-saturated 1-octanol / pH 7.4 buffer, room temperature
Experimental: The partition coefficient, Log (D), between water-saturated 1-octanol and pH 7.4 buffer was determined for the test compounds. The buffer was prepared as described in section 2. A 12 μl aliquot of a 10 mM stock solution in DMSO was introduced to a vial containing 0.60 mL of octanol and 0.60 mL of buffer at room temperature. Testosterone was also added to a final concentration of 100 μM as an internal control. The solution was vortexed for 60 minutes and centrifuged at 10,000 rpm for 10 minutes. The organic and aqueous layers were removed. Serial dilutions of the organic layer were made with 50% methanol except for the initial dilution, which was made in 100% methanol. Serial dilutions of the aqueous layer were made in the pH 7.4 buffer. The diluted samples were then assayed by LC/MS for the compound as well as for testosterone. The Log of the ratio of peak area responses was calculated to obtain the Log (D). Typical Log D values for testosterone are from 3.0-3.3.

[2] = Aqueous equilibrium solubility in pH 7.4 buffer; conditions: for Solubility pH 7.4: pH 7.4 aqueous buffer, room temperature, equilibrium; for solubility: pH 7.4 aqueous phosphate buffer, pH 7.4, aqueous buffer, thermodynamic from solid
[3] = Bi-directional permeability, CACO-2; format: in vitro ADME; conditions: for efflux ratio at 2 h, 10 μM: Caco-2, pH 7
Experimental: as §1, §2, §3, §4, §5, §6, §7, §8, §9

[4] = Caco-2, pH 7, Percent Recovery Blank
[5] = human, Caco-2, pH 7, Papp, A-to-B Avg
[6] = human, Caco-2, pH 7, Papp, A-to-B Rep. 1
[7] = human, Caco-2, pH 7, Papp, A-to-B Rep. 2
[8] = human, Caco-2, pH 7, Papp, B-to-A Avg
[9] = human, Caco-2, pH 7, Papp, B-to-A Rep. 1
[10] = human, Caco-2, pH 7, Papp, B-to-A Rep. 2
[11] = human, Caco-2, pH 7, Percent Recovery A-to-B
[12] = human, Caco-2, pH 7, Percent Recovery B-to-A
[13] = classification from Papp(B-to-A) and ratio
[14] = Caco-2, pH 7, cell-free (blank) membrane, 10 μM, read-out: Papp Blank
[15] = human, Caco-2, pH 7, Caco-2, 10 μM, replicate 2, read-out: Papp, B-to-A Rep. 2

| SMILES | Papp Blank (Caco-2 monolayers; Caco-2) | Papp, A-to-B Avg (Caco-2 monolayers; Caco-2) | Papp, A-to-B Rep. 1 (Caco-2 monolayers; Caco-2) | Papp, A-to-B Rep. 2 (Caco-2 monolayers; Caco-2) | Papp, B-to-A Avg (Caco-2 monolayers; Caco-2) | Papp, B-to-A Rep. 1 (Caco-2 monolayers; Caco-2) | Papp, B-to-A Rep. 2 (Caco-2 monolayers; Caco-2) | Significant Efflux (Caco-2 monolayers; Caco-2) | Log(D) Octanol/pH 7.4 [1] | Solubility pH 7.4 [2] | recovery at 2 h, 10 μM [3, 4] | efflux ratio at 2 h, 10 μM ([3]; human) | Papp A→B at 2 h, 10 µM [3, 5] | Papp A→B at 2 h, 10 µM [3, 6] | Papp A→B at 2 h, 10 µM [3, 7] | Papp B→A at 2 h, 10 µM [3, 8] | Papp B→A at 2 h, 10 µM [3, 9] | recovery at 2 h, 10 μM [3, 11] | recovery at 2 h, 10 μM [3, 12] | solubility [2] | other results |
| --- | --- | --- | --- | --- | --- | --- | --- | --- | --- | --- | --- | --- | --- | --- | --- | --- | --- | --- | --- | --- | --- |
| CC(=O)c1ccc(C(=O)NN(C(=O)c2cc(C(=O)O)cc(C(=O)O)c2)C(C)(C)C)cc1 [RG-100150] | 36.9 10^−6 cm/s | 0.18 10^−6 cm/s | 0.19 10^−6 cm/s | 0.18 10^−6 cm/s | 0.33 10^−6 cm/s | 0.33 10^−6 cm/s | 0.34 10^−6 cm/s | No | −2.1 | ≧1.0 mg/mL | – | – | – | – | – | – | – | – | – | – | – |
| CCc1ccc(C(=O)NN(C(=O)c2cc(C)cc(C)c2)C(C)(C)C)c(F)c1 [RG-101523, 3,5-Dimethyl-benzoic acid N-tert-butyl-N′-(4-ethyl-2-fluoro-benzoyl)-hydrazide] | – | – | – | – | – | – | – | No | 2.9 | – | 95% | 1 | 25.4 ×10⁻⁶ cm/s | 24.2 ×10⁻⁶ cm/s | 26.6 ×10⁻⁶ cm/s | 24.5 ×10⁻⁶ cm/s | 23.6 ×10⁻⁶ cm/s | 95% | 88% | 1 µg/mL (≈ 2.7 µM) | Papp at 2 h, 10 µM ([3]; Caco-2, pH 7, Papp Blank): 29.4 ×10⁻⁶ cm/s; Papp B→A at 2 h, 10 µM [3, 10]: 25.4 ×10⁻⁶ cm/s |
| CCc1ccc(C(=O)NN(C(=O)c2cc(C)cc(C)c2)C(C)(C)C)cc1 [RG-102125] | – | – | – | – | – | – | – | – | 3.2 | – | 62% | – | 26 ×10⁻⁶ cm/s | – | 26.3 ×10⁻⁶ cm/s | – | – | 84% | 63% | 0.6 µg/mL (≈ 1.7 µM) | Absorption Potential (Caco-2 monolayers): High (Papp(A-to-B) ≧ 1.0 × 10^−6 cm/s High); Significant Efflux (Caco-2 monolayers; [13]): No; Papp at 2 h, 10 µM [3, 14]: 21.9 ×10⁻⁶ cm/s; Papp B→A at 2 h, 10 µM ([3]; human, Caco-2, pH 7, Caco-2, 10 μM, average of 2 replicates, read-out: Papp, B-to-A Avg): 20.2 ×10⁻⁶ cm/s; Papp A→B at 2 h, 10 µM ([3]; human, Caco-2, pH 7, Caco-2, 10 μM, replicate 1, read-out: Papp, A-to-B Rep. 1): 25.7 ×10⁻⁶ cm/s; Papp B→A at 2 h, 10 µM ([3]; human, Caco-2, pH 7, Caco-2, 10 μM, replicate 1, read-out: Papp, B-to-A Rep. 1): 20.7 ×10⁻⁶ cm/s; Papp B→A at 2 h, 10 µM [3, 15]: 19.7 ×10⁻⁶ cm/s |
| COc1cccc(C(=O)NN(C(=O)c2cc(C)cc(C)c2)C(C)(C)C)c1C [RG-102398] | – | – | – | – | – | – | – | – | 3.5 | – | 94% | 1 | – | 27 ×10⁻⁶ cm/s | – | 27.1 ×10⁻⁶ cm/s | 25.9 ×10⁻⁶ cm/s | 85% | 90% | ≤ 0.2 µg/mL | Absorption Potential (Caco-2 monolayers): High (Papp(A-to-B) ≧ 1.0 × 10^−6 cm/s High); Significant Efflux (Caco-2 monolayers; [13]): No; Papp at 2 h, 10 µM [3, 14]: 34.7 ×10⁻⁶ cm/s; Papp A→B at 2 h, 10 µM ([3]; human, Caco-2, pH 7, Caco-2, 10 μM, average of 2 replicates, read-out: Papp, A-to-B Avg): 26.9 ×10⁻⁶ cm/s; Papp A→B at 2 h, 10 µM ([3]; human, Caco-2, pH 7, Caco-2, 10 μM, replicate 2, read-out: Papp, A-to-B Rep. 2): 26.8 ×10⁻⁶ cm/s; Papp B→A at 2 h, 10 µM [3, 15]: 28.2 ×10⁻⁶ cm/s |
| CCc1c(C(=O)NN(C(=O)c2ccc(F)c(C(F)(F)F)c2)C(C)(C)C)ccc2c1OCCO2 [RG-115280] | 1.88 10^−6 cm/s | 1.27 10^−6 cm/s | 1.24 10^−6 cm/s | 1.30 10^−6 cm/s | 1.49 10^−6 cm/s | 1.50 10^−6 cm/s | 1.48 10^−6 cm/s | No | 3.9 | 0.0012 mg/mL | – | – | – | – | – | – | – | – | – | – | Papp B-A / Papp A-B Ratio (Caco-2 monolayers): 1.2 |
| COc1ccc(C(=O)N(NC(=O)c2ccc3c(c2C)OCCO3)C(C)(C)C)c(OC)n1 [RG-115517, 2,6-dimethoxy-nicotinic acid N-tert-butyl-N′-(5-methyl-2,3-dihydro-benzo[1,4]dioxine-6-carbonyl)-hydrazide] | – | – | – | – | – | – | – | No | 2.9 | – | 96% | 0.9 | 28.8 ×10⁻⁶ cm/s | 28.4 ×10⁻⁶ cm/s | 29.3 ×10⁻⁶ cm/s | 26.4 ×10⁻⁶ cm/s | 25.2 ×10⁻⁶ cm/s | 91% | 95% | 14 µg/mL (≈ 32.6 µM) | Papp at 2 h, 10 µM ([3]; Caco-2, pH 7, Papp Blank): 31.6 ×10⁻⁶ cm/s; Papp B→A at 2 h, 10 µM [3, 10]: 27.6 ×10⁻⁶ cm/s |
| COc1cnccc1C(=O)N(NC(=O)c1cccc(O)c1C)C(C)(C)C [RG-115595] | 33.2 10^−6 cm/s | 19.2 10^−6 cm/s | 19.6 10^−6 cm/s | 18.9 10^−6 cm/s | 30.7 10^−6 cm/s | 29.8 10^−6 cm/s | 31.7 10^−6 cm/s | No | 2.1 | 0.026 mg/mL | – | – | – | – | – | – | – | – | – | – | Papp B-A / Papp A-B Ratio (Caco-2 monolayers): 1.6 |
| CCCC(N(NC(=O)c1cccc(OC)c1C)C(=O)c1cc(C)cc(C)c1)C(C)(C)C (stereo not shown) [RG-115823] | 24.2 10^−6 cm/s | 17.6 10^−6 cm/s | 17.4 10^−6 cm/s | 17.8 10^−6 cm/s | 17.1 10^−6 cm/s | 18.8 10^−6 cm/s | 15.4 10^−6 cm/s | No | 3.3 | 0.0003 mg/mL | – | – | – | – | – | – | – | – | – | – | Papp B-A / Papp A-B Ratio (Caco-2 monolayers): 1.0 |
